Assay results published in the CheMixHub viscosity set.
± gives the uncertainty stated by the source.

Assay: xn = mol fraction of the nth substance listed

ClC(Cl)(Cl)Cl + Clc1ccccc1
298.15 K, 101 kPa
Conditions | viscosity [mPa·s]
x2 = 0.2 | 0.844 ± 0.0087
x2 = 0.4 | 0.81 ± 0.0083
x2 = 0.6 | 0.787 ± 0.008
x2 = 0.8 | 0.769 ± 0.0077

NNC(=O)c1ccncc1 + O
viscosity [mPa·s]
Conditions | 298.15 K | 303.15 K | 308.15 K | 313.15 K
100 kPa, x1 = 0.00051 | – | – | 0.7216 ± 0.12 | –
100 kPa, x1 = 0.000801 | – | 0.8033 ± 0.12 | 0.724 ± 0.12 | –
100 kPa, x1 = 0.00109 | 0.9009 ± 0.12 | 0.8061 ± 0.12 | 0.7263 ± 0.12 | 0.6588 ± 0.12
100 kPa, x1 = 0.00153 | 0.9061 ± 0.12 | 0.8104 ± 0.12 | 0.7299 ± 0.12 | 0.6617 ± 0.12
101 kPa, x1 = 0.003 | 0.9182 ± 0.019 | – | 0.7383 ± 0.016 | –

ClC(Cl)(Cl)Cl + C[N+](=O)[O-]
Conditions | viscosity [mPa·s]
298 K, 101.3 kPa, x1 = 0.0959 | 0.636 ± 0.008
298 K, 101.3 kPa, x1 = 0.1961 | 0.655 ± 0.008
298 K, 101.3 kPa, x1 = 0.3609 | 0.702 ± 0.008
298 K, 101.3 kPa, x1 = 0.5088 | 0.751 ± 0.009
298 K, 101.3 kPa, x1 = 0.7487 | 0.805 ± 0.009
298.15 K, 101 kPa, x2 = 0.1023 | 0.884 ± 0.0087
298.15 K, 101 kPa, x2 = 0.1662 | 0.8265 ± 0.083
298.15 K, 101 kPa, x2 = 0.2011 | 0.8405 ± 0.0084
298.15 K, 101 kPa, x2 = 0.2958 | 0.8074 ± 0.0082
298.15 K, 101 kPa, x2 = 0.3102 | 0.7692 ± 0.078
298.15 K, 101 kPa, x2 = 0.3946 | 0.7776 ± 0.008
298.15 K, 101 kPa, x2 = 0.4351 | 0.7285 ± 0.073
298.15 K, 101 kPa, x2 = 0.4978 | 0.7481 ± 0.0078
298.15 K, 101 kPa, x2 = 0.5452 | 0.6969 ± 0.07
298.15 K, 101 kPa, x2 = 0.6013 | 0.7175 ± 0.0076
298.15 K, 101 kPa, x2 = 0.6424 | 0.6735 ± 0.068
298.15 K, 101 kPa, x2 = 0.701 | 0.6857 ± 0.0075
298.15 K, 101 kPa, x2 = 0.7297 | 0.6556 ± 0.066
298.15 K, 101 kPa, x2 = 0.799 | 0.6627 ± 0.0073
298.15 K, 101 kPa, x2 = 0.8077 | 0.6427 ± 0.065
298.15 K, 101 kPa, x2 = 0.878 | 0.6339 ± 0.064
298.15 K, 101 kPa, x2 = 0.9009 | 0.6481 ± 0.0073
298.15 K, 101 kPa, x2 = 0.9419 | 0.6295 ± 0.064
303.15 K, 101 kPa, x2 = 0.1 | 0.7718 ± 0.021
303.15 K, 101 kPa, x2 = 0.1023 | 0.8319 ± 0.0083
303.15 K, 101 kPa, x2 = 0.2 | 0.7427 ± 0.02
303.15 K, 101 kPa, x2 = 0.2011 | 0.7922 ± 0.0081
303.15 K, 101 kPa, x2 = 0.2958 | 0.7599 ± 0.0079
303.15 K, 101 kPa, x2 = 0.3 | 0.7058 ± 0.019
303.15 K, 101 kPa, x2 = 0.3946 | 0.735 ± 0.0078
303.15 K, 101 kPa, x2 = 0.4 | 0.6831 ± 0.018
303.15 K, 101 kPa, x2 = 0.4978 | 0.7052 ± 0.0076
303.15 K, 101 kPa, x2 = 0.5 | 0.6569 ± 0.017
303.15 K, 101 kPa, x2 = 0.6 | 0.6415 ± 0.017
303.15 K, 101 kPa, x2 = 0.6013 | 0.6783 ± 0.0074
303.15 K, 101 kPa, x2 = 0.7 | 0.624 ± 0.017
303.15 K, 101 kPa, x2 = 0.701 | 0.6511 ± 0.0073
303.15 K, 101 kPa, x2 = 0.799 | 0.6308 ± 0.0072
303.15 K, 101 kPa, x2 = 0.8 | 0.6126 ± 0.016
303.15 K, 101 kPa, x2 = 0.9 | 0.6123 ± 0.016
303.15 K, 101 kPa, x2 = 0.9009 | 0.6177 ± 0.0071
308.15 K, 101 kPa, x2 = 0.1 | 0.7423 ± 0.02
308.15 K, 101 kPa, x2 = 0.1023 | 0.7884 ± 0.0081
308.15 K, 101 kPa, x2 = 0.2 | 0.6974 ± 0.018
308.15 K, 101 kPa, x2 = 0.2011 | 0.7475 ± 0.0079
308.15 K, 101 kPa, x2 = 0.2958 | 0.7146 ± 0.0077
308.15 K, 101 kPa, x2 = 0.3 | 0.668 ± 0.018
308.15 K, 101 kPa, x2 = 0.3946 | 0.6899 ± 0.0075
308.15 K, 101 kPa, x2 = 0.4 | 0.6479 ± 0.017
308.15 K, 101 kPa, x2 = 0.4978 | 0.6672 ± 0.0074
308.15 K, 101 kPa, x2 = 0.5 | 0.626 ± 0.017
308.15 K, 101 kPa, x2 = 0.6 | 0.6063 ± 0.016
308.15 K, 101 kPa, x2 = 0.6013 | 0.6432 ± 0.0072
308.15 K, 101 kPa, x2 = 0.7 | 0.5927 ± 0.016
308.15 K, 101 kPa, x2 = 0.701 | 0.6169 ± 0.0071
308.15 K, 101 kPa, x2 = 0.799 | 0.5981 ± 0.007
308.15 K, 101 kPa, x2 = 0.8 | 0.5834 ± 0.015
308.15 K, 101 kPa, x2 = 0.9 | 0.5735 ± 0.015
308.15 K, 101 kPa, x2 = 0.9009 | 0.5901 ± 0.0069
313.15 K, 101 kPa, x2 = 0.1023 | 0.7324 ± 0.0079
313.15 K, 101 kPa, x2 = 0.2011 | 0.6952 ± 0.0076
313.15 K, 101 kPa, x2 = 0.2958 | 0.674 ± 0.0074
313.15 K, 101 kPa, x2 = 0.3946 | 0.648 ± 0.0073
313.15 K, 101 kPa, x2 = 0.4978 | 0.6232 ± 0.0072
313.15 K, 101 kPa, x2 = 0.6013 | 0.6053 ± 0.0071
313.15 K, 101 kPa, x2 = 0.701 | 0.5841 ± 0.0069
313.15 K, 101 kPa, x2 = 0.799 | 0.5675 ± 0.0068
313.15 K, 101 kPa, x2 = 0.9009 | 0.5621 ± 0.0068
318 K, 101.3 kPa, x1 = 0.0897 | 0.5256 ± 0.02
318 K, 101.3 kPa, x1 = 0.1941 | 0.5442 ± 0.021
318 K, 101.3 kPa, x1 = 0.3589 | 0.5822 ± 0.022
318 K, 101.3 kPa, x1 = 0.5073 | 0.6189 ± 0.023
318 K, 101.3 kPa, x1 = 0.7644 | 0.6719 ± 0.025
318.15 K, 101 kPa, x2 = 0.1 | 0.6487 ± 0.017
318.15 K, 101 kPa, x2 = 0.2 | 0.6201 ± 0.017
318.15 K, 101 kPa, x2 = 0.3 | 0.5962 ± 0.016
318.15 K, 101 kPa, x2 = 0.4 | 0.5782 ± 0.015
318.15 K, 101 kPa, x2 = 0.5 | 0.5609 ± 0.015
318.15 K, 101 kPa, x2 = 0.6 | 0.546 ± 0.015
318.15 K, 101 kPa, x2 = 0.7 | 0.5328 ± 0.014
318.15 K, 101 kPa, x2 = 0.8 | 0.5246 ± 0.014
318.15 K, 101 kPa, x2 = 0.9 | 0.5207 ± 0.014
